Experimental data from ChEMBL document CHEMBL1681651, “A broad spectrum anticancer nucleoside with selective toxicity against human colon cells in vitro” (2011).

Experiments:
Format in all cases: functional
NCI-H322M [1] = assay: Growth inhibition of human NCI-H322M cells after 48 hrs by […] growth inhibition assay
NCI-H522 [2] = assay: Growth inhibition of human NCI-H522 cells assessed as cell growth at 100 uM after 48 hrs by SRB assay; details: NCI-H522, 48 h, read-out: Activity
TK-10 [3] = assay: Growth inhibition of human TK10 cells after 48 hrs by […] growth inhibition assay; details: TK-10, 48 h
NCI-H226 = assay: Growth inhibition of human NCI-H226 cells assessed as cell growth at 1 mM after 48 hrs by SRB assay; details: NCI-H226, 48 h, read-out: Activity
DU-145 = assay: Growth inhibition of human DU145 cells after 48 hrs by […] growth inhibition assay; details: DU-145, 48 h
OVCAR-5 = assay: Growth inhibition of human OVCAR5 cells assessed as cell growth at 100 uM after 48 hrs by SRB assay; details: OVCAR-5, 48 h, read-out: Activity
786-0 = assay: Growth inhibition of human 786-0 cells after 48 hrs by […] growth inhibition assay; details: 786-0, 48 h
HOP-62 = assay: Growth inhibition of human HOP62 cells assessed as cell growth at 1 mM after 48 hrs by SRB assay; details: HOP-62, 48 h, read-out: Activity
Malme-3M = assay: Growth inhibition of human MALME-3M cells assessed as cell growth at 10 uM after 48 hrs by SRB assay; details: read-out: Activity
SF-295 [4] = assay: Growth inhibition of human SF295 cells assessed as cell growth at 1 mM after 48 hrs by SRB assay; details: SF-295, 48 h, read-out: Activity
SF-539 = assay: Growth inhibition of human SF539 cells assessed as cell growth at 1 uM after 48 hrs by SRB assay; details: SF-539, 48 h, read-out: Activity
SW-620 = assay: Growth inhibition of human SW620 cells assessed as cell growth at 10 uM after 48 hrs by SRB assay; details: SW-620, 48 h, read-out: Activity
ACHN = assay: Growth inhibition of human ACHN cells assessed as cell growth at 1 uM after 48 hrs by SRB assay; details: read-out: Activity
OVCAR-3 [5] = assay: Growth inhibition of human OVCAR3 cells assessed as cell growth at 100 uM after 48 hrs by SRB assay; details: OVCAR-3, 48 h, read-out: Activity
OVCAR-4 = assay: Growth inhibition of human OVCAR4 cells after 48 hrs by […] growth inhibition assay; details: OVCAR-4, 48 h
SK-MEL-5 [6] = assay: Growth inhibition of human SK-MEL-5 cells assessed as cell growth at 1 uM after 48 hrs by SRB assay; details: SK-MEL-5, 48 h, read-out: Activity
SK-MEL-5 [7] = assay: Growth inhibition of human SK-MEL-5 cells assessed as cell growth at 10 uM after 48 hrs by SRB assay; details: SK-MEL-5, 48 h, read-out: Activity
SK-MEL-5 [8] = assay: Growth inhibition of human SK-MEL-5 cells after 48 hrs by […] growth inhibition assay; details: SK-MEL-5, 48 h
HCT-116 = assay: Growth inhibition of human HCT116 cells after 48 hrs by […] growth inhibition assay; details: HCT-116, 48 h
OVCAR-3 [9] = assay: Growth inhibition of human OVCAR3 cells after 48 hrs by […] growth inhibition assay; details: OVCAR-3, 48 h
NCI-H322M [10] = assay: Growth inhibition of human NCI-H322M cells assessed as cell growth at 10 uM after 48 hrs by SRB assay; details: read-out: Activity
LOX IMVI = assay: Growth inhibition of human LOXIMVI cells assessed as cell growth at 1 mM after 48 hrs by SRB assay; details: read-out: Activity
HOP-92 = assay: Growth inhibition of human HOP92 cells assessed as cell growth at 10 uM after 48 hrs by SRB assay; details: HOP-92, 48 h, read-out: Activity
SN12C = assay: Growth inhibition of human SN12C cells assessed as cell growth at 1 uM after 48 hrs by SRB assay; details: read-out: Activity
KM12 = assay: Growth inhibition of human KM12 cells assessed as cell growth at 100 uM after 48 hrs by SRB assay; details: KM12, 48 h, read-out: Activity
PC-3 = assay: Growth inhibition of human PC3 cells assessed as cell growth at 10 uM after 48 hrs by SRB assay; details: PC-3, 48 h, read-out: Activity
NCI-H522 [11] = assay: Growth inhibition of human NCI-H522 cells after 48 hrs by […] growth inhibition assay; details: NCI-H522, 48 h
SF-295 [12] = assay: Growth inhibition of human SF295 cells assessed as cell growth at 0.1 uM after 48 hrs by SRB assay; details: SF-295, 48 h, read-out: Activity
NCI-H322M [13] = assay: Growth inhibition of human NCI-H322M cells assessed as cell growth at 1 uM after 48 hrs by SRB assay; details: read-out: Activity
CCRF-CEM = assay: Growth inhibition of human CCRF-CEM cells assessed as cell growth at 10 uM after 48 hrs by SRB assay; details: read-out: Activity
TK-10 [14] = assay: Growth inhibition of human TK10 cells assessed as cell growth at 1 uM after 48 hrs by SRB assay; details: TK-10, 48 h, read-out: Activity
[15] = read-out: LC50 (the source's name)
[16] = read-out: pLC50 (the source's name) (converted)

Molecule `CCOC(=O)C[C@H]1[C@@H](O[Si](C)(C)C(C)(C)C)[C@H](n2cnc3c(NC(=O)Nc4ccccc4)ncnc32)O[C@@H]1CNC(=O)NC` has a GI50 (NCI-H322M [1]; read-out: GI50) greater than 100 µM, a CC50 (NCI-H322M [1]; [15]) greater than 100 µM and a TGI (NCI-H322M [1]; read-out: TGI) greater than 100 µM. The GI50 (NCI-H322M [1]; read-out: pGI50 (converted)) was greater than 100 µM, the CC50 (NCI-H322M [1]; [16]) was greater than 100 µM and the TGI (NCI-H322M [1]; read-out: pTGI) was greater than 100 µM. For the same molecule, the growth at 100 µM (NCI-H522 [2]) was 32%, the GI50 (TK-10 [3]; read-out: GI50) was 12.4 µM and the CC50 (TK-10 [3]; [15]) was greater than 100 µM. The TGI (TK-10 [3]; read-out: TGI) was 40.5 µM, the GI50 (TK-10 [3]; read-out: pGI50 (converted)) was 12.3 µM and the CC50 (TK-10 [3]; [16]) was greater than 100 µM. The TGI (TK-10 [3]; read-out: pTGI (converted)) was 40.7 µM, the growth at 1000 µM (NCI-H226) was 55% and the CC50 (DU-145; [15]) was 12.5 µM. The GI50 (DU-145; read-out: pGI50 (converted)) was 5.01 µM, the CC50 (DU-145; [16]) was 77.6 µM and the TGI (DU-145; read-out: pTGI (converted)) was 19.5 µM. The growth at 100 µM (OVCAR-5) was 72%, the GI50 (786-0; read-out: GI50) was 2 µM and the CC50 (786-0; [15]) was 17.9 µM. It also gave a TGI (786-0; read-out: TGI) of 5.21 µM, a GI50 (786-0; read-out: pGI50 (converted)) of 2 µM and a CC50 (786-0; [16]) of 17.8 µM. It also gave a TGI (786-0; read-out: pTGI (converted)) of 5.25 µM, a growth at 1000 µM (HOP-62) of -65% and a growth at 10 µM (Malme-3M) of 92%. It also gave a growth at 1000 µM (SF-295 [4]) of 24%, a growth at 1 µM (SF-539) of 91% and a growth at 10 µM (SW-620) of 97%. It also gave a growth at 1 µM (ACHN) of 97%, a growth at 100 µM (OVCAR-3 [5]) of 16% and a GI50 (OVCAR-4; read-out: GI50) of 12.3 µM. The CC50 (OVCAR-4; [15]) was greater than 100 µM, the TGI (OVCAR-4; read-out: TGI) was greater than 100 µM and the GI50 (OVCAR-4; read-out: pGI50 (converted)) was 12.3 µM. The CC50 (OVCAR-4; [16]) was greater than 100 µM, the TGI (OVCAR-4; read-out: pTGI) was greater than 100 µM and the growth at 1 µM (SK-MEL-5 [6]) was 100%. For the same molecule, the growth at 10 µM (SK-MEL-5 [7]) was 89%, the GI50 (SK-MEL-5 [8]; read-out: GI50) was 4.34 µM and the CC50 (SK-MEL-5 [8]; [15]) was greater than 100 µM. It also gave a TGI (SK-MEL-5 [8]; read-out: TGI) greater than 100 µM, a GI50 (SK-MEL-5 [8]; read-out: pGI50 (converted)) of 4.37 µM and a CC50 (SK-MEL-5 [8]; [16]) greater than 100 µM. It also gave a TGI (SK-MEL-5 [8]; read-out: pTGI (converted)) greater than 100 µM, a GI50 (HCT-116; read-out: GI50) of 3.2 µM and a CC50 (HCT-116; [15]) of 45.6 µM. It also gave a TGI (HCT-116; read-out: TGI) of 16.1 µM, a GI50 (HCT-116; read-out: pGI50 (converted)) of 3.24 µM and a CC50 (HCT-116; [16]) of 45.7 µM. For the same molecule, the TGI (HCT-116; read-out: pTGI (converted)) was 16.2 µM, the GI50 (OVCAR-3 [9]; read-out: GI50) was 4.59 µM and the CC50 (OVCAR-3 [9]; [15]) was 91.3 µM. It also gave a TGI (OVCAR-3 [9]; read-out: TGI) of 17.2 µM, a GI50 (OVCAR-3 [9]; read-out: pGI50 (converted)) of 4.57 µM and a CC50 (OVCAR-3 [9]; [16]) of 91.2 µM. It also gave a TGI (OVCAR-3 [9]; read-out: pTGI (converted)) of 17 µM, a growth at 10 µM (NCI-H322M [10]) of 95% and a growth at 1000 µM (LOX IMVI) of 4%. The growth at 10 µM (HOP-92) was 12%, the growth at 1 µM (SN12C) was 101% and the growth at 100 µM (KM12) was 13%. It also gave a growth at 10 µM (PC-3) of 103%, a GI50 (NCI-H522 [11]; read-out: GI50) of 4.36 µM and a CC50 (NCI-H522 [11]; [15]) greater than 100 µM. It also gave a TGI (NCI-H522 [11]; read-out: TGI) of 85.7 µM, a GI50 (NCI-H522 [11]; read-out: pGI50 (converted)) of 4.37 µM and a CC50 (NCI-H522 [11]; [16]) greater than 100 µM. For the same molecule, the TGI (NCI-H522 [11]; read-out: pTGI (converted)) was 85.1 µM, the growth at 0.1 µM (SF-295 [12]) was 91% and the growth at 1 µM (NCI-H322M [13]) was 90%. The growth at 10 µM (CCRF-CEM) was 92% and the growth at 1 µM (TK-10 [14]) was 103%.
